Laboratory results published in paper PMC10485906, “Development of a Dihydroquinoline–Pyrazoline GluN2C/2D-Selective Negative Allosteric Modulator of the N-Methyl-D-aspartate Receptor” (ACS Chemical Neuroscience, 2023).
Where two headings read alike, the source gives them in different places.

Tests used:
GluN1/GluN2D [1] = target: GluN1/GluN2D (Rattus norvegicus, UniProt P35439+Q62645); assay: Whole-cell voltage-clamp recordings, HEK cells, GluN1/GluN2D (agonist dependence); format: cell-based
From the text: (§1) We previously described the actions of the GluN2C/GluN2D-preferring negative allosteric modulator DQP-1105 as dependent on glutamate (but not glycine) binding, in that DQP-1105 affinity increases after GluN1/GluN2D NMDARs bind glutamate.[32] […] The concentration-dependent relaxation is indicative of an agonist-induced increase in potency that leads to re-equilibration of the inhibitor after agonist binding induces an increase in inhibitor affinity. We investigated the glutamate dependence of compound 2i (GluN1/GluN2D, Figure 4; GluN1/GluN2C, Figure S2), DQP-1105 (Figure S1), and compound (S)-2a (DQP-69;[33]Figure S3) using the same protocols.
(§2) We preincubated cells with glycine and the inhibitor 2i (DQP-997-74) and compared inhibitor potency during the peak and steady-state current responses to glutamate application. […] To investigate the time course of 2i inhibition, we fitted the relaxation of the current response with a single exponential function. If the current response time course reflects 2i binding, then the reciprocal of τinhibition should be linearly related to its concentration, with the slope equal to kON and intercept equal to kOFF. […] The deactivation of GluN1/GluN2D receptors (5.3 ± 0.2 s) was slowed by the presence of compound 2i when applied at concentrations of 0.1 μM (7.3 ± 0.3 s; p = 0.017) and 0.3 μM (10.5 ± 1.0 s; p = 0.002) but not at 0.03 μM (5.6 ± 0.3 s; p = 0.518; Figure 4E). […] This phenomenon was previously discovered for QNZ-46, a glutamate-dependent GluN2C/2D-selective inhibitor with a different structural core.[42] As proposed in that study, the prolonged deactivation may indicate that 2i slows a conformational change necessary for glutamate unbinding or 2i may need to unbind before glutamate can unbind.
(§3) In addition, we evaluated how glutamate dependence affects inhibition of responses to brief agonist applications similar to phasic glutamate release that occurs at synapses. To do so, we preincubated cells expressing GluN1/GluN2D receptors with the inhibitor 2i and then applied trains of five brief pulses of NMDA (which dissociates more rapidly than glutamate) and glycine from a pressurized micropipette to mimic repetitive synaptic transmission (Figure 4F). We measured the peak amplitude and compared the concentration–response curves for the inhibition of the first and last response (Figure 4G). The initial train of pulses in the absence of drug controls for systematic errors such as internalization of receptors.
(§4) To further evaluate whether 2i followed the law of mass action, we coapplied different concentrations of 2i with glutamate during the steady-state glutamate and glycine responses of GluN1/GluN2D receptors expressed in HEK cells (Figure 4H). […] We also fitted the onset and offset time course of the inhibition produced by compound 2i with a single exponential function (Figure 4J).
(§5) HEK293 cells (HEK, ATCC CRL-1573) were plated on glass coverslips pretreated with 0.1 mg/mL poly-D-lysine and cultured in Dulbecco’s modified Eagle medium (DMEM) plus Glutamax (GIBCO 10569-10) supplemented with 10% fetal bovine serum, 10 U/mL of penicillin, and 10 μg/mL of streptomycin at 37 °C and 5% CO2. The cells were transiently transfected with cDNA encoding rat GluN1, GluN2D, and eGFP at a ratio of 1:1:5 by using the calcium phosphate precipitation method.[48] After 24–48 h following the transfection, the cells were perfused with external recording solution that contained (in mM) 3 KCl, 150 NaCl, 0.01 EDTA, 1.0 CaCl2, 10 HEPES, and 22 D-mannitol (the pH was adjusted to 7.4 with NaOH). The patch electrodes (resistance 3–5 MΩ) were prepared from thin-walled glass micropipettes (TW150F-4, World Precision Instruments, Sarasota, FL) by a dual-stage glass micropipette puller (PC-10, Narishige, Tokyo, Japan) and filled with internal solution containing (in mM) 110 D-gluconate, 110 CsOH, 30 CsCl, 5 HEPES, 4 NaCl, 0.5 CaCl2, 2 MgCl2, 5 BAPTA, 2 NaATP, and 0.3 NaGTP. […]

GluN1/GluN2D [2] = target: T1, GluN1/GluN2D (Rattus norvegicus, UniProt Q62645); assay: as above; format: cell-based
T1 sequence (Q62645 28-1323, other chains not shown): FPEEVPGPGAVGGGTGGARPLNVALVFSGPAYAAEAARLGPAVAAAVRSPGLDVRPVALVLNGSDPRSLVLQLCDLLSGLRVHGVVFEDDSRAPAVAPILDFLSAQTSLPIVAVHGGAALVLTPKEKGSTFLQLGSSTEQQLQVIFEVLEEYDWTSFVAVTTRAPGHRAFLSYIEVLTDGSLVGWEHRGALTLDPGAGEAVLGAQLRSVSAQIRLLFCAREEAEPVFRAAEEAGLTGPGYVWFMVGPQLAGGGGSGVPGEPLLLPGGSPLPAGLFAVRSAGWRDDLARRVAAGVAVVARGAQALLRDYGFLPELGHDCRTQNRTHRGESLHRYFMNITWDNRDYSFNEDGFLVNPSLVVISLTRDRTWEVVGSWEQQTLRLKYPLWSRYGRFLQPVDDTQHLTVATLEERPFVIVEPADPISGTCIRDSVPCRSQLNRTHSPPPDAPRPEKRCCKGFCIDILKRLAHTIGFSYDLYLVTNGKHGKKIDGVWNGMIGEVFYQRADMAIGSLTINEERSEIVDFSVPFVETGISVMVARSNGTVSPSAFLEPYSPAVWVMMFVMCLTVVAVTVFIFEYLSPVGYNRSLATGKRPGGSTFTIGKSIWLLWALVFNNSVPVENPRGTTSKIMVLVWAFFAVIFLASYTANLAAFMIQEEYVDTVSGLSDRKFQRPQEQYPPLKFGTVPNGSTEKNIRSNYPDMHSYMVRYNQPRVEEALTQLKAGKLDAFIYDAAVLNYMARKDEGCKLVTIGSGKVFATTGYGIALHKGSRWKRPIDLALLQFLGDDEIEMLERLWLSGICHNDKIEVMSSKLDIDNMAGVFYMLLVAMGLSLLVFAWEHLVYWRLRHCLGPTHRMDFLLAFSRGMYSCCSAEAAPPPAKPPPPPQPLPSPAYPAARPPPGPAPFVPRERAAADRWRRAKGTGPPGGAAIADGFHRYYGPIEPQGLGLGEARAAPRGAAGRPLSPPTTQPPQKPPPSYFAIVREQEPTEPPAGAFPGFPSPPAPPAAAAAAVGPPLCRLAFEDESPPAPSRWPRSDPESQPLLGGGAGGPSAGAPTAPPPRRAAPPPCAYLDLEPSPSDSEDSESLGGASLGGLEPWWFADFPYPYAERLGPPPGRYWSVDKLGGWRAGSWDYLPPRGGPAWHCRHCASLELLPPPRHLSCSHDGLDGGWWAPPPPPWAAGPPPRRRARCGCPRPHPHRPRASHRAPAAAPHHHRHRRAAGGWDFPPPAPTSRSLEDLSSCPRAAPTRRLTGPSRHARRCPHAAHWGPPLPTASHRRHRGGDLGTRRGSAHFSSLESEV
From the text: as §1, §2, §3, §4, §5

GluN1/GluN2D [3] = target: T1, GluN1/GluN2D; parameters: GluN2B (NM_012574.1), GluN2C (NM_012575.3), and GluN2D (NM_022797.2) were provided by; expressed in transfected cells; host or cells: Xenopus laevis oocytes (cRNA injection); settings: cited from earlier work
Tsc1^± mice = system: Tsc1^± mice; parameters: method as in PMID 25081057; settings: 28 mg/kg IP; heterozygote Tsc1^± mice; cited from earlier work

GluN1/GluN2D (Rattus norvegicus, UniProt P35439+Q62645), sequence (Q62645 28-1323, other chains not shown): as above

## Cc1ccc2[nH]c(=O)c(C3=NN(C(=O)CCC(=O)O)C(c4ccc(Br)cc4)C3)c(-c3ccccc3)c2c1 (centres unmarked) [compound 1, reference compound]
GluN1/GluN2D [1]; HEK293, inhibitor preapplied, linear regression of 1/τinhibition vs concentration
  koff: 0.19 s⁻¹
GluN1/GluN2D [1]; fifth of 5 brief NMDA (500 μM)/glycine (250 μM) pulses at 1 s intervals, read-out: IC50 pulse 5 (95% CI)
  IC50: 1600 nM
GluN1/GluN2D [1]; first of 5 brief NMDA (500 μM)/glycine (250 μM) pulses at 1 s intervals, read-out: IC50 pulse 1 (95% CI)
  IC50: 4900 nM
GluN1/GluN2D [1]; inhibitor preapplied, from kON and kOFF, supplement
  Kd: 400 nM
GluN1/GluN2D [1]; peak current response to glutamate, inhibitor preapplied, read-out: IC50 peak (95% CI)
  IC50: 1400 nM
GluN1/GluN2D [1]; steady-state current response to glutamate, inhibitor preapplied, read-out: IC50 steady-state (95% CI)
  IC50: 720 nM
GluN1/GluN2D [2]; 0.3 μM compound, mean ± SEM
  τdeactivation following glutamate removal: 6.6 ± 0.3 s
GluN1/GluN2D [2]; 1 μM compound, mean ± SEM
  τdeactivation following glutamate removal: 6.9 ± 0.4 s
GluN1/GluN2D [2]; 3 μM compound, mean ± SEM
  τdeactivation following glutamate removal: 8.0 ± 0.4 s
GluN1/GluN2D [2]; mean ± SEM, compared by ANOVA
  fold-change in IC50 for the peak and steady-state current responses: 2.1 ± 0.2
GluN1/GluN2D [2]; ratio of IC50 values
  IC50 fold higher during peak compared to steady-state: 1.9 fold
GluN1/GluN2D [2]; trains of brief agonist applications
  IC50 fold higher at first pulse compared to fifth pulse: 3 fold
GluN1/GluN2D [3]
  IC50: 2700 nM
Tsc1^± mice
  effect on seizure burden: diminished seizure burden
